Our source for the GI50 and TGI values is PubChem BioAssay (NCI).

Some test systems named below: SK-MEL-2 melanoma; T-47D breast; SK-MEL-28 melanoma; KM12 colon; K-562 leukemia; CAKI-1 renal; OVCAR-8 ovarian; OVCAR-5 ovarian; NCI-H226 lung; HS 578T breast.
Common to all, as to assay: NCI anticancer screen, dose series, 48 h

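Growth conditions: 96-well plates. Treatment: test compound, 48 hours, 5 concentrations. Analysis: linear interpolation between bracketing concentrations; unreached endpoints set to highest concentration. GI50 = concentration required for 50% inhibition of growth. At the TGI there is no net growth.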

In the case of `O=C1/C(=C/c2ccc([N+](=O)[O-])s2)Oc2ccc(Br)cc21`, the GI50 with SK-MEL-2 melanoma is 231 nM; in the test on T-47D breast, 250 nM; in the test on SK-MEL-28 melanoma, 0.302 µM; in the test on KM12 colon, 247 nM; in the test with K-562 leukemia, 135 nM; in the test with CAKI-1 renal, 1.16 µM. The GI50 in the test with OVCAR-8 ovarian is 0.37 µM; in the test on OVCAR-5 ovarian, 1070 nM; in the test with NCI-H226 lung, 1.14 µM; with HS 578T breast, 448 nM. For the same compound, the TGI with SK-MEL-2 melanoma came out at 0.509 µM; in the test on T-47D breast, 0.804 µM; in the test on SK-MEL-28 melanoma, 0.951 µM; in the test with KM12 colon, 0.623 µM; in the test on K-562 leukemia, 0.833 µM; with CAKI-1 renal, 9.42 µM. Also, the TGI in the test on OVCAR-8 ovarian is above 100 µM; in the test on OVCAR-5 ovarian, 2.47 µM; in the test on NCI-H226 lung it was 2.84 µM; with HS 578T breast, above 100 µM.
Take `O=C(N/N=C/c1coc2ccc(Cl)cc2c1=O)c1cc(O)c(O)c(O)c1`: the GI50 in the test on SK-MEL-2 melanoma was above 100000 nM; in the test with T-47D breast it was above 100000 nM; with SK-MEL-28 melanoma, 65.7 µM; in the test with KM12 colon, 21500 nM; in the test on K-562 leukemia, 15200 nM; in the test on CAKI-1 renal, 25 µM. Moreover, the GI50 with OVCAR-8 ovarian is 18.6 µM; with OVCAR-5 ovarian it was 24600 nM; in the test on NCI-H226 lung it was 26.1 µM; with HS 578T breast it was 18300 nM. Also, the TGI in the test with SK-MEL-2 melanoma is above 100 µM; in the test with T-47D breast, above 100 µM; in the test on SK-MEL-28 melanoma, above 100 µM; with KM12 colon, 69.1 µM; in the test with K-562 leukemia it was 55.6 µM; in the test on CAKI-1 renal, 70 µM. The TGI in the test on OVCAR-8 ovarian is above 100 µM; in the test on OVCAR-5 ovarian it was 74.9 µM; in the test on NCI-H226 lung it was 68.4 µM; in the test with HS 578T breast it was 73.3 µM.
Turning to `CCN(CC)CCNc1ccc2nc(C)n3c4ccc(OC)cc4c(=O)c1c23`, the TGI with SK-MEL-2 melanoma worked out at 28 µM; with T-47D breast it was 33.8 µM; in the test on SK-MEL-28 melanoma, 25.9 µM; in the test with KM12 colon, 14.6 µM; with K-562 leukemia, 4.13 µM; in the test on CAKI-1 renal, 13 µM. The TGI with OVCAR-8 ovarian is 9.25 µM; in the test with OVCAR-5 ovarian, 20.3 µM; with NCI-H226 lung, 7.11 µM; in the test on HS 578T breast, 6.68 µM.
On to `CCOC(=O)c1c(C)n(Cc2ccc(Cl)cc2Cl)c2c1cc(O)c1[nH]c(Cc3ccccc3)nc12`, for which the GI50 in the test on SK-MEL-2 melanoma was 9390 nM; in the test on T-47D breast it was 5270 nM; with SK-MEL-28 melanoma, 13 µM; in the test on KM12 colon it was 2050 nM; in the test on K-562 leukemia, 2940 nM; in the test with CAKI-1 renal, 8.29 µM. For the same compound, the GI50 in the test on OVCAR-8 ovarian was 3.19 µM; with OVCAR-5 ovarian, 3650 nM; in the test with NCI-H226 lung it was 14 µM; with HS 578T breast, 1530 nM. For the same compound, the TGI was determined as 37.2 µM in the test with SK-MEL-2 melanoma; 25.9 µM in the test with T-47D breast; 27.7 µM with SK-MEL-28 melanoma; 4.62 µM with KM12 colon; 10.7 µM in the test with K-562 leukemia; 26.8 µM in the test with CAKI-1 renal. Further, the TGI with OVCAR-8 ovarian came out at 11 µM; in the test on OVCAR-5 ovarian, 9.36 µM; in the test with NCI-H226 lung, 30.9 µM; in the test with HS 578T breast, 3.8 µM.
As to `Cc1ccc(S(=O)(=O)NC(=O)Nc2ncn[nH]2)cc1`, the TGI with SK-MEL-2 melanoma, in the test on T-47D breast, in the test with SK-MEL-28 melanoma, in the test with KM12 colon, in the test with K-562 leukemia and in the test on CAKI-1 renal was above 100 µM throughout. In addition, the TGI in the test on OVCAR-8 ovarian, in the test on OVCAR-5 ovarian, in the test with NCI-H226 lung and in the test on HS 578T breast was above 100 µM in each case.
As for `CCc1n(Cc2ccc3ccccc3c2)cc[n+]1Cc1ccc2ccccc2c1`, the GI50 in the test with SK-MEL-2 melanoma was 534 nM; in the test with T-47D breast, 425 nM; with SK-MEL-28 melanoma, 0.581 µM; with KM12 colon, 549 nM; in the test with K-562 leukemia, 404 nM; with CAKI-1 renal, 12.4 µM. The GI50 in the test on OVCAR-8 ovarian is 0.76 µM; with OVCAR-5 ovarian it was 1200 nM; in the test with NCI-H226 lung, 1.08 µM; in the test with HS 578T breast it was 1500 nM. For the same compound, the TGI in the test with SK-MEL-2 melanoma worked out at 2.14 µM; in the test with T-47D breast, 4.7 µM; in the test on SK-MEL-28 melanoma it was 2.06 µM; in the test on KM12 colon, 1.89 µM; in the test with K-562 leukemia, 2.27 µM; in the test with CAKI-1 renal, 25.5 µM. The TGI was determined as 3.13 µM in the test with OVCAR-8 ovarian, 2.75 µM with OVCAR-5 ovarian, 3.82 µM with NCI-H226 lung and 5.62 µM in the test with HS 578T breast.
Turning to `COc1ccc(/C(=N/O)c2cc(F)c(F)c(OC)c2F)cc1O`, the GI50 with SK-MEL-2 melanoma was 421 nM; in the test with T-47D breast, 530 nM; with SK-MEL-28 melanoma it was 10.8 µM; in the test on KM12 colon, 396 nM; in the test with K-562 leukemia, 271 nM; with CAKI-1 renal, 0.538 µM. Moreover, the GI50 in the test on OVCAR-8 ovarian was 3.1 µM; with NCI-H226 lung it was 15.8 µM; in the test with HS 578T breast, 938 nM. Besides, the TGI in the test on SK-MEL-2 melanoma is above 100 µM; in the test with T-47D breast it was 72.4 µM; in the test with SK-MEL-28 melanoma it was above 100 µM; in the test with KM12 colon, above 100 µM; in the test on K-562 leukemia, above 100 µM; in the test on CAKI-1 renal it was above 100 µM. Besides, the TGI in the test with OVCAR-8 ovarian, in the test on NCI-H226 lung and in the test on HS 578T breast was above 100 µM in each case.
As to `O=C1c2c[n+](Cc3ccccc3)ccc2-c2nc3ccccc3c3ccnc1c23`, the GI50 with SK-MEL-2 melanoma was 646 nM; in the test on T-47D breast it was 648 nM; in the test with SK-MEL-28 melanoma it was 0.954 µM; with KM12 colon it was 1060 nM; in the test on K-562 leukemia, 733 nM; in the test on CAKI-1 renal, 1.2 µM. Besides, the GI50 was 1630 nM in the test on OVCAR-5 ovarian, 0.537 µM in the test on NCI-H226 lung and 1030 nM in the test with HS 578T breast. For the same compound, the TGI was determined as 1.77 µM in the test on SK-MEL-2 melanoma; 1.7 µM in the test on T-47D breast; 3.95 µM in the test with SK-MEL-28 melanoma; 4.28 µM in the test with KM12 colon; 7.83 µM in the test on K-562 leukemia; 9.37 µM in the test on CAKI-1 renal. Further, the figures for the TGI in the test on OVCAR-5 ovarian, with NCI-H226 lung and with HS 578T breast were 10.5 µM, 3.07 µM and 10.2 µM, respectively.
